Patent US5496947A, “Quinolone carboxylic acid derivatives” (Dong Wha Pharmaceutical Industrial Co., Ltd., priority 1994, dated 1996)
≈ marks a conversion by molar mass, not a printed value. Read-outs that look alike come from different tables or passages of the source.

Experiments:
Assay type in all cases: cell-based
[1] = tested on: Acinetobacter calcoaceticus; experiment: MIC, 2-fold dilution method in micro-well plate, A. calcoaceticus
[2] = tested on: Citrobacter freundii ATCC 8090; experiment: MIC, 2-fold dilution method in micro-well plate, C. freundii
Summary of the method: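 Broth 2-fold microdilution; compounds tested as hydrochloride salts in sterile water. Inoculum from overnight BHI broth culture at 37° C., final about (10^5-10^6)/2 cfu/ml per well; MIC read after incubation at 37° C.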

[3] = tested on: Enterobacter aerogenes ATCC 13048; experiment: MIC, 2-fold dilution method in micro-well plate, E. aerogenes; settings: Klebsiella aerogenes
Summary of the method: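 Two-fold broth microdilution of hydrochloride salts dissolved in sterile water (10 mg/ml stock). Inoculum from overnight BHI culture at 37° C, about (10^5–10^6)/2 cfu/ml final in well. MIC read after incubation at 37° C.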

Enterobacter cloacae = experiment: MIC, 2-fold dilution method in micro-well plate, E. cloacae; settings: read-out: Minimum Inhibitory Concentration
[4] = tested on: Escherichia coli ATCC 25922; experiment: MIC, 2-fold dilution method in micro-well plate, E. coli
Summary of the method: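 Broth two-fold microdilution of hydrochloride salts in water against E. coli ATCC 25922 grown overnight in BHI at 37° C. Final inoculum about (10^5 -10^6)/2 cfu/ml; after incubation at 37° C, MIC was recorded.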

[5] = tested on: Haemophilus influenza ATCC 35056; experiment: MIC, 2-fold dilution method in micro-well plate, H. influenzae; settings: H. influenzae ATCC35056, 37° C.; read-out: Minimum Inhibitory Concentration
Summary of the method: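 MIC by 2-fold broth microdilution; compounds as hydrochloride salts in sterile water (10 mg/ml stock). Overnight BHI culture inoculated at about (10^5-10^6)/2 cfu/ml final; MIC read after cultivation at 37° C.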

[6] = tested on: Klebsiella pneumoniae ATCC 13883; experiment: MIC, 2-fold dilution method in micro-well plate, K. pneumoniae
Summary of the method: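 Two-fold broth dilution in micro-wells of compound as hydrochloride salt in water. Overnight BHI culture at 37 °C inoculated to about (10^5–10^6)/2 cfu/ml final. MIC read after incubation at 37 °C.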

[7] = tested on: Proteus vulgaris ATCC 13315; experiment: MIC, 2-fold dilution method in micro-well plate, P. vulgaris
Summary of the method: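 Two-fold broth dilution in micro-well plates; compounds tested as hydrochloride salts in water. Bacteria from overnight BHI broth culture at 37 °C inoculated to about (10^5–10^6)/2 cfu/ml final; MIC read after incubation at 37 °C.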

[8] = tested on: Pseudomonas aeruginosa ATCC 27853; experiment: MIC, 2-fold dilution method in micro-well plate, P. aeruginosa
Summary of the method: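 MIC was recorded after 37° C incubation of bacteria with serial two-fold dilutions of compound. Bacteria came from an overnight 37° C BHI culture; the final inoculum was about (10^5-10^6)/2 cfu/ml. Compounds were tested as hydrochloride salts diluted in sterile water from a 10 mg/ml stock.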

[9] = tested on: Salmonella typhimurium ATCC 14028; experiment: MIC, 2-fold dilution method in micro-well plate, S. typhimurium; settings: Salmonella enterica, read-out: Minimum Inhibitory Concentration
Summary of the method: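 Twofold broth microdilution with overnight BHI culture at 37 °C; inoculum about (10^5-10^6)/2 cfu/ml in wells. Compounds tested as hydrochloride salts from 10 mg/ml aqueous stock; MIC read after incubation at 37 °C.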

[10] = tested on: Shigella flexneri ATCC 12022; experiment: MIC, 2-fold dilution method in micro-well plate, S. flexneri; settings: S. flexneri ATCC12022, 37° C., read-out: Minimum Inhibitory Concentration
Summary of the method: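 Two-fold broth dilution in microwell plates; compounds as hydrochloride salts in sterile water. Overnight BHI-broth culture at 37 °C used as inoculum, giving about (10^5–10^6)/2 cfu/ml per well. MIC read after cultivation at 37 °C.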

[11] = tested on: Shigella sonnei ATCC 25931; experiment: MIC, 2-fold dilution method in micro-well plate, S. sonnei; settings: S. sonnei ATCC25931, 37° C., read-out: Minimum Inhibitory Concentration
Summary of the method: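 Broth microdilution with 2-fold serial dilutions of compounds as hydrochloride salts in water. Overnight BHI culture of S. sonnei at 37° C added to give about (10^5-10^6)/2 cfu/ml per well. MIC read after incubation at 37° C.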

[12] = tested on: Serratia marcescens ATCC 8100; experiment: MIC, 2-fold dilution method in micro-well plate, S. marcescens
Summary of the method: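 Broth microdilution (2-fold series) of hydrochloride salts in water; S. marcescens from overnight BHI culture at 37 °C inoculated to about (10^5-10^6)/2 cfu/ml. MIC read after cultivation at 37 °C.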

[13] = tested on: Streptococcus faecalis ATCC 19433; experiment: MIC, 2-fold dilution method in micro-well plate, S. faecalis ATCC 19433; settings: Enterococcus faecalis; S. faecalis ATCC19433, 37° C.; read-out: Minimum Inhibitory Concentration
Summary of the method: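 Broth microdilution (2-fold series) with test compounds as hydrochloride salts in sterile water; overnight BHI culture at 37 °C inoculated to about (10^5-10^6)/2 cfu/ml per well. MIC read after incubation at 37 °C.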

[14] = tested on: Streptococcus faecalis ATCC 29212; experiment: MIC, 2-fold dilution method in micro-well plate, S. faecalis ATCC 29212; settings: Enterococcus faecalis; S. faecalis ATCC29212, 37° C.; read-out: Minimum Inhibitory Concentration
Summary of the method: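 Compounds were tested as hydrochloride salts by 2-fold serial dilution in water in micro-well plates. Final inoculum was about (10^5-10^6)/2 cfu/ml from overnight BHI broth culture. MIC was read after culture at 37° C.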

[15] = tested on: Streptococcus pneumoniae ATCC 6303; experiment: MIC, 2-fold dilution method in micro-well plate, S. pneumoniae; settings: S. pneuinoniae ATCC6303, 37° C., read-out: Minimum Inhibitory Concentration
Summary of the method: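 MIC by 2-fold serial microdilution of compounds as hydrochloride salts in water, against a BHI-grown overnight culture. Final inoculum was about (10^5–10^6)/2 cfu/ml. Plates were incubated at 37° C before the minimum inhibitory concentration was read.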

[16] = tested on: Streptococcus pyrogens ATCC 19615; experiment: MIC, 2-fold dilution method in micro-well plate, S. pyrogens; settings: S. pyrogenes ATCC19615, 37° C., read-out: Minimum Inhibitory Concentration
Summary of the method: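 Inoculum from overnight 37° C brain-heart infusion culture gave roughly (10^5-10^6)/2 cfu/mL per well against two-fold serial dilutions of hydrochloride-salt compound in water. Lowest concentration inhibiting growth after 37° C incubation taken as MIC.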

[17] = A. calcoaceticus ATCC8090 (as in tables), 37° C., read-out: Minimum Inhibitory Concentration
[18] = ATCC8090, read-out: Minimum Inhibitory Concentration
[19] = ATCC13048, read-out: Minimum Inhibitory Concentration
[20] = ATCC13883, read-out: Minimum Inhibitory Concentration
[21] = ATCC13315, read-out: Minimum Inhibitory Concentration
[22] = P. aerugirnosa ATCC27853, 37° C., read-out: Minimum Inhibitory Concentration
[23] = ATCC8100, read-out: Minimum Inhibitory Concentration
[24] = E. coli ATCC25922, 37° C., read-out: Minimum Inhibitory Concentration
[25] = S. marcescens ATCC8100, 37° C., read-out: Minimum Inhibitory Concentration
[26] = E. cloacae ATCC23355 (as in tables), 37° C.
[27] = K. pneumoniae ATCC13883, 37° C., read-out: Minimum Inhibitory Concentration
[28] = P. vulgaris ATCC13315, 37° C., read-out: Minimum Inhibitory Concentration
[29] = S. typhisurium ATCC14028, 37° C.
[30] = E. aerogenes ATCC13048, 37° C., read-out: Minimum Inhibitory Concentration

Row | SMILES | MIC [1, 17] [µg/mL] | MIC [2, 18] [µg/mL] | MIC [3, 19] [µg/mL] | MIC (Enterobacter cloacae) [µg/mL] | MIC [5] [µg/mL] | MIC [6, 20] [µg/mL] | MIC [7, 21] [µg/mL] | MIC [8, 22] [µg/mL] | MIC [9] [µg/mL] | MIC [10] [µg/mL] | MIC [11] [µg/mL] | MIC [12, 23] [µg/mL] | MIC [13] [µg/mL] | MIC [14] [µg/mL] | MIC [15] [µg/mL] | MIC [16] [µg/mL] | MIC [4, 24] [µg/mL] | MIC [12, 25] [µg/mL] | MIC (Enterobacter cloacae; [26]) [µg/mL] | MIC [6, 27] [µg/mL] | also measured
1 | CC1CN(c2cc3c(cc2F)c(=O)c(C(=O)O)cn3-c2ccncc2F)CC(C)N1.Cl (stereo not shown) [Example 4, 1-(3-fluoro-4-pyridyl)-6-fluoro-7-(3,5-dimethyl-1-piperazinyl)-1,4dihydro-4-oxoquinoline-3-carboxylic acid hydrochloride] | 2.5 | 1.25 | 1.25 | 0.625 | 1.25 | 0.625 | 0.625 | 0.625 | 1.25 | 1.25 | 0.625 | 1.25 | 5 | 5 | 10 | 10 |  |  |  |  | MIC ([4]; ATCC25922, read-out: Minimum Inhibitory Concentration): 1.25 µg/mL
2 | Cl.O=C(O)c1cn(-c2ccc(F)cn2)c2cc(N3CCNCC3)c(F)cc2c1=O [Example 17, 1-(5-fluoro-2-pyridyl)-6-fluoro-7-(1-piperazinyl)-1,4-dihydro-4-oxoquinoline-3-carboxylic acid hydrochloride] | 2.5 | 1.25 | 1.25 | 1.25 | 1.25 | 0.625 | 0.625 | 1.25 | 1.25 | 0.625 | 0.625 |  | 5 | 2.5 | 5 | 5 | 0.313 | 2.5 |  |  | 
3 | N[C@H]1CCN(c2cc3c(cc2F)c(=O)c(C(=O)O)cn3-c2ccncc2F)C1 [Example 6, 1-(3-fluoro-4-pyridyl)-6-fluoro-7-[(3S)-3-amino-1-pyrrolidinyl]-1,4-dihydro-4-oxoquinoline-3-carboxylic acid] | 0.156 (≈ 0.404 µM) | 0.313 (≈ 0.81 µM) | 0.313 (≈ 0.81 µM) |  | 0.313 (≈ 0.81 µM) |  |  | 0.156 (≈ 0.404 µM) |  | 0.313 (≈ 0.81 µM) | 0.02 (≈ 0.0518 µM) |  | 1.25 (≈ 3.24 µM) | 2.5 (≈ 6.47 µM) | 2.5 (≈ 6.47 µM) | 2.5 (≈ 6.47 µM) | 0.078 (≈ 0.202 µM) | 0.078 (≈ 0.202 µM) | 0.156 (≈ 0.404 µM) | 0.156 (≈ 0.404 µM) | MIC [7, 28]: 0.078 µg/mL (≈ 0.202 µM); MIC [9, 29]: 0.156 µg/mL (≈ 0.404 µM)
4 | CC1CN(c2c(F)cc3c(=O)c(C(=O)O)cn(-c4ccc(F)cn4)c3c2F)CC(C)N1.Cl (stereo not shown) [Example 26, 1-(5-fluoro-2-pyridyl)-6,8-difluoro-7-(3,5-dimethyl-1-piperazinyl)-1,4-dihydro-4-oxoquinoline-3-carboxylic acid hydrochloride] |  | 1.25 |  | 1.25 | 1.25 |  |  | 0.625 |  | 0.313 | 0.313 | 1.25 | 5 | 5 | 5 | 10 | 0.625 |  |  | 0.625 | MIC [1, 18]: 1.25 µg/mL; MIC [3, 30]: 0.625 µg/mL; MIC [7, 28]: 0.255 µg/mL; MIC [9, 29]: 0.625 µg/mL
5 | Cl.O=C(O)c1cn(-c2ccncc2F)c2nc(N3CCNCC3)c(F)cc2c1=O [Example 7, 1-(3-fluoro-4-pyridyl)-6-fluoro-7-(1-piperazinyl)-1,4-dihydro-4-oxo-1,8-naphthyridine-3-carboxylic acid hydrochloride] | 2.5 |  |  |  | 0.313 |  | 0.313 |  | 0.313 | 0.156 | 0.313 |  | 2.5 | 5 | 2.5 | 5 | 0.625 | 1.25 | 0.625 | 0.625 | MIC ([2]; C. freundii ATCC8090, 37° C., read-out: Minimum Inhibitory Concentration): 1.25 µg/mL; MIC [3, 30]: 0.625 µg/mL; MIC ([8]; ATCC27853, read-out: Minimum Inhibitory Concentration): 0.625 µg/mL
